# Tests used:
# MT-4 = test: Toxicity to uninfected MT-4 cells, live cell count by trypan blue after 4 days culture; type: cell-based; conditions: for MT-4 (live cells) / Toxicity (% control): uninfected MT-4 cells; for MT-4 (live cells): 4 days
# Protocol: (§1) A test for the activity to inhibit hyperplasia of HIV was conducted in accordance with the method proposed by Harada et al [Science, 229, 563-5663 (1985)]. Testing conditions: Cell: […] (HTLV-I-carrying cell line) Virus: THLV-IIIb (one kind of HIV); HTLV-IIIb was prepared from the supernatant of the culture broth of MOLT-4/HIV, a HIV-producing cell. The potency of the virus was 1 x 10⁶ TCID 50/ml. Culture medium: RPMI-1640 (containing 10% bovine fetal serum, 100 IV/penicilin, and 100 µg/ml streptomycin) Culture conditions: In each of the wells of a 24-well culture tray, […] cells (6.6 x 10⁵/ml, 0.3 ml) and HTLV-II Ib ([…], 0.2 ml) were placed [multiplicity of infection (MOI = 0.02)] and cultured for 1 hour. After adsorption of virus, Compound A diluted with culture medium (0.5 ml) was added to a total volume of 1.0 ml and cultured at 37°C for 4 days. Cells not infected by HTLV-IIIb dilution aqueous solution and cells not treated with Compound A were used as controls.
# (§2) Virally infected cells and uninfected cells were cultured for 4 days. After the culture, the live cells were counted by the trypan blue tinting method. The property of cytopathic effect suppression was evaluated by comparison of the number of live cells in the culture broths of virally infected cells and uninfected cells both obtained in the absence of Compound A.
# [1] = tested on: HTLV-IIIb (one kind of HIV); test: Test for activity to inhibit hyperplasia of HIV: suppression of cytopathic effect (CPE), live cells counted by trypan blue; type: cell-based, human immunodeficiency virus (HIV); conditions: for MT-4/HIV (live cells): HTLV-IIIb infected MT-4 cells, MOI 0.02, 4 days
# Protocol: as §1, §2
# [2] = tested on: Reverse transcriptase originating in avain myeloblastic virum; test: Test for activity to inhibit reverse transcriptase ([³H] thymidine triphosphate incorporation); type: biochemical; design: Radio activity #1 / Radio activity #2: unit not given here; conditions: for % control: inhibition of reverse transcriptase
# Protocol: This test was carried out by the method described below.
# This test solution was prepared by dissolving Compound A in a concentration of 5 mg/ml in dimethyl sulfoxide and diluting the resultant solution with distilled water.
# Fifty (50) µl of the measuring solution and 50 µl of the test solution were mixed and left reacting at 37°C for one hour. The reaction mixture was cooled with ice to stop the reaction. Then 50 µl of […] by a disk of DEAE cellulose paper 2.4 cm in diameter. The wet paper was washed three times with an aqueous 5% […] (with 12 molecules of crystal water) and once each with distilled water and ethanol. The radioactivity was determined with a liquid scintillation counter.
substance,measurement,setting,value
K₇PW₁₀Ti₂O₄₀·6H₂O [Compound A],toxicity,"MT-4; 25 to 100 ug/ml, MT-4",only inconspicuous toxicity
same,MT-4 (live cells),MT-4; Compound A 25 µg/ml,11.8 x 10⁵ cells/ml
same,MT-4 (live cells),MT-4; Compound A 50 µg/ml,9.8 x 10⁵ cells/ml
same,MT-4 (live cells),MT-4; Compound A 100 µg/ml,10.1 x 10⁵ cells/ml
same,MT-4 (live cells),MT-4; Compound A 200 µg/ml,8.5 x 10⁵ cells/ml
same,MT-4 (live cells),MT-4; Compound A 400 µg/ml,6.0 x 10⁵ cells/ml
same,Toxicity (% control),MT-4; Compound A 25 µg/ml,0 % control
same,Toxicity (% control),MT-4; Compound A 50 µg/ml,1 % control
same,Toxicity (% control),MT-4; Compound A 100 µg/ml,0 % control
same,Toxicity (% control),MT-4; Compound A 200 µg/ml,21 % control
same,Toxicity (% control),MT-4; Compound A 400 µg/ml,44 % control
same,activity to control CPE,"[1]; 25 to 100 ug/ml, MT-4/HIV",excelled in activity to control CPE
same,MT-4/HIV (live cells),[1]; Compound A 25 µg/ml,10.0 x 10⁵ cells/ml
same,MT-4/HIV (live cells),[1]; Compound A 50 µg/ml,9.8 x 10⁵ cells/ml
same,MT-4/HIV (live cells),[1]; Compound A 100 µg/ml,8.5 x 10⁵ cells/ml
same,MT-4/HIV (live cells),[1]; Compound A 200 µg/ml,4.8 x 10⁵ cells/ml
same,MT-4/HIV (live cells),[1]; Compound A 400 µg/ml,4.7 x 10⁵ cells/ml
same,% CPE Control,"[1]; MT-4/HIV, Compound A 25 µg/ml",90%
same,% CPE Control,"[1]; MT-4/HIV, Compound A 50 µg/ml",88%
same,% CPE Control,"[1]; MT-4/HIV, Compound A 100 µg/ml",71%
same,% CPE Control,"[1]; MT-4/HIV, Compound A 200 µg/ml",25%
same,% CPE Control,"[1]; MT-4/HIV, Compound A 400 µg/ml",47%
same,Average value (CPM),"[2]; Concentration 12,500 µg/ml",3906.0 CPM
same,Radio activity #1,"[2]; Concentration 12,500 µg/ml",3666
same,Radio activity #2,"[2]; Concentration 12,500 µg/ml",4146
same,% control,"[2]; Concentration 12,500 µg/ml",50.8%
same,Average value (CPM),"[2]; Concentration 25,000 µg/ml",3878.0 CPM
same,Radio activity #1,"[2]; Concentration 25,000 µg/ml",3143
same,Radio activity #2,"[2]; Concentration 25,000 µg/ml",4613
same,% control,"[2]; Concentration 25,000 µg/ml",51.2%
same,Average value (CPM),"[2]; Concentration 50,000 µg/ml",2450.5 CPM
same,Radio activity #1,"[2]; Concentration 50,000 µg/ml",1828
same,Radio activity #2,"[2]; Concentration 50,000 µg/ml",3079
same,% control,"[2]; Concentration 50,000 µg/ml",71.1%
same,Average value (CPM),"[2]; Concentration 100,000 µg/ml",1391.0 CPM
same,Radio activity #1,"[2]; Concentration 100,000 µg/ml",1231
same,Radio activity #2,"[2]; Concentration 100,000 µg/ml",1391
same,% control,"[2]; Concentration 100,000 µg/ml",86.0%
same,Average value (CPM),"[2]; Concentration 200,000 µg/ml",967.0 CPM
same,Radio activity #1,"[2]; Concentration 200,000 µg/ml",970
same,Radio activity #2,"[2]; Concentration 200,000 µg/ml",930
same,% control,"[2]; Concentration 200,000 µg/ml",92.0%
same,activity to inhibit reverse transcriptase,[2]; summary in words of Table 2,manifested an activity to inhibit reverse transcriptase even in a small application rate

# Source: EP0388245A1, “Agent resistant to AIDS virus” (TERUMO KABUSHIKI KAISHA, priority 1989, dated 1990)
